Legend:
Assay type in all cases: in vivo
[1] = test system: Ovariectomised adult female Sprague Dawley rats; assay: Female rat sexual proceptivity test (time investigating male vs female stimulus); settings: Example 1; i.p., 3 and 10mg/kg in 50% 2-hydroxypropyl-β-cyclodextrin, 1h before tests
[2] = test system: Ovariectomised adult female Sprague Dawley rats; assay: as above
Procedure: (§1) Ovariectomised adult female Sprague Dawley rats (180-200g, from Charles River) were housed in groups of 6 in a reversed lighting system of 12h light:dark (lights off 7.00-19.00h). Two weeks after ovariectomy they were used for sexual activity tests. The experiments started at least 5h into the dark period.
Tests were carried out in a circular arena of 90cm diameter, surrounded by a 30cm high wall. Two small cages with wire-mesh front (15x15cm) are fixed into the wall such that the front of the cage is «flush» with the wall and the 2 cages are opposite each other. They contained two stimuli animals: an intact sexually experienced male and a receptive female (ovariectomised, primed with 5µg oestradiol benzoate dissolved in corn oil and injected subcutaneously 48 hours before the test and with 0.5 mg of progesterone four hours before the test). Sexually naive test and control animals were used. Forty eight hours before the tests, both the test and control animals were primed with 5µg oestradiol benzoate. For animals used as positive controls, progesterone (0.5mg/0.1ml) was dissolved in corn oil and administered subcutaneously (s.c.), 4h before the test. Test and control animals were introduced one at a time for 10 minute periods into the arena. During the 10min test, the time that the test or positive control animal spent investigating each stimulus animal was noted. The arena was thoroughly cleaned between animals. The position of the male/female stimuli boxes was randomised between animals, in order to avoid place preference. The difference in the percentage of time spent investigating the male minus the female stimuli was calculated, out of the total time spent investigating stimuli animals. […]
Ovariectomised adult female Sprague Dawley rats (180-200g) were housed in groups of 5 in a reversed lighting system of 12h light:dark (lights off 5.00-17.00h). They were used for the experiments at least two weeks after ovariectomy. Forty eight hours before tests, the animals were primed with oestradiol benzoate (5µg/0.1ml in corn oil, s.c.). On day 1, progesterone (0.5mg/0.1ml, in corn oil, s.c.) was administered to one of the groups 4h before tests, as a positive control. […] The test lasted 10 minutes and was carried out as described before. The difference in the percentage of time spent investigating the male minus the female stimuli was calculated, out of the total time spent investigating stimuli animals. Animals were submitted to a test on day 1 and on day 15. […] On day 15 the test took place again, as described for day 1. […]

[3] = test system: Ovariectomised adult female Sprague Dawley rats; assay: Female rat sexual receptivity test (lordosis quotient, LQ); settings: Example 2; after vs before administration (paired t test); Compound (1) 10mg/kg i.p. 1h; quinelorane 6.25µg/kg s.c. 90min
Procedure: as §1
It was administered intraperitoneally (i.p.) at a dose of 10mg/kg, in a dosing volume of 1ml/kg. […] Forty eight hours before testing, ovariectomised female rats (as described above), were primed with 5µg oestradiol benzoate dissolved in corn oil and injected subcutaneously. […] The females were placed with a series of vigorous male rats and subjected to 10 mounts.
The lordotic response of the animal was recorded and expressed as a percentage of the mounts (i.e. lordosis quotient, LQ), as previously described. Animals showing LQ<20 were considered non-receptive and were included in the study. Each rat was tested prior to administration of the compound and then tested similarly post-injection.
The above compound was dissolved in PEG200 vehicle and administered orally. […] Both compounds were administered in a 1ml/kg volume.
Forty eight hours before tests, the animals were primed with 5µg oestradiol benzoate (Sigma Chemical. Co. Ltd., UK) dissolved in corn oil and injected subcutaneously. The females were placed with a series of vigorous male rats and subjected to 10 mounts. The lordotic response of the animal was recorded and expressed as a percentage of the mounts (i.e. lordosis quotient, LQ). […] Animals showing higher LQ were not included in the study. Each rat was tested prior to administration of the compound and then tested similarly at 1h and 90min post-injection of the above compound or quinelorane respectively.

SMILES: COc1ccc(C2(CNC(=O)[C@](C)(Cc3c[nH]c4ccccc34)NC(=O)Nc3ccc([N+](=O)[O-])cc3)CCCCC2)nc1 [Compound (1), (S) 3-(1H-Indol-3-yl)-N-[1-(5-methoxy-pyridin-2-yl)-cyclohexyl-methyl]-2-methyl-2-[3-(4-nitro-phenyl)-ureido]-propionamide]
- MED (increase in percentage of time spent investigating the male stimulus) [1]: 10 mg/kg
- percentage of time spent investigating the male stimulus ([2]; Example 1, i.p., dose-dependent 3mg/kg-10mg/kg, 1h before tests, vs vehicle): increased the percentage of time spent investigating the male stimulus
- proceptivity, day 1 ([2]; Example 3, Compound (1) 15mg/kg i.p. 1h before test, progesterone 0.5mg/0.1ml s.c. 4h before, vs vehicle, P<0.01): stimulatory effect on proceptivity
- body weight or general behaviour ([2]; Example 3, repeated daily administration 15mg/kg i.p. over 15 days): no changes in body weight or general behaviour
- MED (increase in percentage of time spent investigating the male stimulus) ([2]; Example 4, i.c.v., 3-30µg/rat, 10min before tests): 10 µg
- percentage of time spent investigating the male stimulus ([2]; Example 4, i.c.v., dose-dependent 3-30µg/rat, 10min before tests): increased the percentage of time spent investigating the male stimulus
- antagonism of the inhibitory effect of NMB on proceptivity ([2]; Example 5, Compound (1) 15mg/kg i.p. 1h before i.c.v. NMB 100ng, blockade not total at this dose): prevented the inhibitory effect of NMB
- lordosis quotient (LQ) [3]: significant (P<0.05) stimulatory effect on the LQ
